One data set has as its system COX. The conditions noted are these: cited from earlier work.
The conditions of data set [1]: in vivo; cited from earlier work.
Data set [2] in a line: Drug excipient compatibility: appearance and HPLC assay. The data set is classed as physicochemical. The conditions noted are these: 40° C./75% RH, four weeks. Here is the method: A non-cGMP drug excipient compatibility study for eflornithine HCl/sulindac combination tablet was conducted. Appearance, HPLC Assay and XRPD properties were evaluated using a series of samples. The excipients that were tested included PVP, HPMC, lactose, EXPLOTAB™, Ac-Di-Sol®, PROSOLV®, STARCH 1500®, and OPADRY® Yellow. […] Total mass of most samples was approximately 750 mg. Preparation involved weigh off of components into 20cc scintillation vials, closed and vortexed for approximately 30 seconds. The samples were then stored in a 40° C./75% RH stability chamber for four weeks. Lids on the vials were loosely secured and were protected from light while stored in the chamber. Appearance observations were conducted by visual examination of the vials prepared for HPLC analysis. […] Excipient compatibility samples were analyzed using a method capable of detecting both actives, cflornithine and sulindac (FIG. 4A). The method employs a gradient reverse phase HPLC with Ultraviolet (UV) detection at 195 nm.

A short description of data set [3]: Drug excipient compatibility: XRPD. In kind it is physicochemical. The conditions noted are these: 40° C./75% RH, four weeks. As to the method:
A non-cGMP drug excipient compatibility study for eflornithine HCl/sulindac combination tablet was conducted. Appearance, HPLC Assay and XRPD properties were evaluated using a series of samples. The excipients that were tested included PVP, HPMC, lactose, EXPLOTAB™, Ac-Di-Sol®, PROSOLV®, STARCH 1500®, and OPADRY® Yellow. […] Total mass of most samples was approximately 750 mg. Preparation involved weigh off of components into 20cc scintillation vials, closed and vortexed for approximately 30 seconds. The samples were then stored in a 40° C./75% RH stability chamber for four weeks. Lids on the vials were loosely secured and were protected from light while stored in the chamber. XRPD analysis was conducted on a Bruker AXS D8 Advance system with a Bragg-Brentano configuration using the CuKα radiation. Samples were analyzed at room temperature using the following parameters: 40 kV, 40 mA, 1° divergence and antiscatter slits, a method measuring in continuous mode from 2-40°2Θ with a 0.05° step and 1 second/step time. Between 3 and 25 mg of sample was analyzed using a rotating, top-filled steel sample holder in a nine-position auto-sampler accessory. The system was calibrated using traceable standards.

The next data set deals with tumor putrescine levels. The conditions noted are these: eflornithine infusion, without suppressing peripheral platelet counts; cited from earlier work.
In data set [4] the test system is tumors harboring Ki-ras mutations. The conditions noted are these: reduced from 90%; cited from earlier work.
For data set [5], the system named is prostoglandin E2 (PGE2) levels in flat mucosa. Particulars: 300 mg/day, one month; cited from earlier work.
For data set [6] the following is noted: cited from earlier work.
The conditions of data set [7]: in vivo; cited from earlier work. The source holds these as a separate data set.

Where a name gives a salt, the structure may show the parent alone.

The text below walks through data of patent publication US12350246B2 (Cancer Prevention Pharmaceuticals, Inc., priority 2015, dated 2025).

In the case of `CC1=C(CC(=O)O)c2cc(F)ccc2/C1=C\c1ccc(S(C)(=O)=O)cc1` [Sulindac sulfone], in the data set on COX, the COX-inhibitory activity result is “lacks COX-inhibitory activity”.
As to `Cc1ccc(-c2cc(C(F)(F)F)nn2-c2ccc(S(N)(=O)=O)cc2)cc1` [celecoxib, 4-[5-(4-Methylphenyl)-3-(trifluoromethyl)pyrazol-1-yl]benzenesulfonamide], in data set [1], the “Increase in rates of heart and blood vessel disease” value was 30%; the “Risks of gastrointestinal side effects” value was “greater than 80%”.
In the case of `NCCCC(N)(C(=O)O)C(F)F` (stereo not drawn) [eflornithine HCl], in data set [2], the “Compatibility with excipients (appearance, HPLC assay)” value is “compatible with the potential excipients”. Further, the “Compatibility with excipients (XRPD)” value in data set [3] is on record as “compatible with the potential excipients”.
With `NCCCC(N)(C(=O)O)C(F)F` (stereo not drawn) [eflornithine, 2,5-diamino-2-(difluoromethyl)pentanoic acid], the “Decrease in tumor putrescine levels” value in the data set on tumor putrescine levels is given as 90%. Further, in [4], the “Tumors harboring Ki-ras mutations” value is reported as 36%.
Regarding `CC(C)Cc1ccc(C(C)C(=O)O)cc1` (stereo not drawn) [ibuprofen], the “PGE2 levels in flat mucosa” value in [5] is recorded as “significant decrease”.
On to `CN1C(C(=O)Nc2ccccn2)=C(O)c2ccccc2S1(=O)=O` [piroxicam, 4-hydroxy-2-methyl-N-2-pyridyl-2H-1,2-benzothiazine-3-carboxamide 1,1-dioxide], for which the “Tumors harboring Ki-ras mutations” value in [4] was 25%.
As for `CC1=C(CC(=O)O)c2cc(F)ccc2/C1=C\c1ccc([S+](C)[O-])cc1` (stereo not drawn) [sulindac, (Z)-5-fluoro-2-methyl-1-((4-(methylsulfinyl)phenyl)methylene)-1H-indene-3-acetic acid], in data set [2], the “Compatibility with excipients (appearance, HPLC assay)” value is on record as “compatible with the potential excipients”. The “Compatibility with excipients (XRPD)” value in data set [3] is “compatible with the potential excipients”. Moreover, the “Fraction of the drug absorbed” value in data set [6] (after oral administration) was “about 90%”. For the same compound, in data set [6] (fasting patients), the “Time to peak plasma levels” value is given as “about 2 hours”. Besides, in data set [7], the “Mild gastrointestinal effects, patients affected” value was approximately 20%; the “Skin rash and pruritus, patients affected” value is listed as 5%.
